Measured values: ChEMBL document CHEMBL1201862, “PubChem BioAssay data set” (2004)
Activity calls are given as the source filed them.

What was measured:
[1] = viability loss in HeLa cells – cytotoxicity control for MgcRacGAP inhibitor project, dose response (AID 624300); format: functional
[2] = biological target: T1, Rac GTPase-activating protein 1 (Homo sapiens, UniProt Q9H0H5); assay: blockers of MgcRacGAP-driven Rac1 GTP hydrolysis – biochemical, ADP Hunter fluorescence, primary and confirmatory, confirmation (AID 624330); format: functional
T1 sequence (Q9H0H5 whole entry): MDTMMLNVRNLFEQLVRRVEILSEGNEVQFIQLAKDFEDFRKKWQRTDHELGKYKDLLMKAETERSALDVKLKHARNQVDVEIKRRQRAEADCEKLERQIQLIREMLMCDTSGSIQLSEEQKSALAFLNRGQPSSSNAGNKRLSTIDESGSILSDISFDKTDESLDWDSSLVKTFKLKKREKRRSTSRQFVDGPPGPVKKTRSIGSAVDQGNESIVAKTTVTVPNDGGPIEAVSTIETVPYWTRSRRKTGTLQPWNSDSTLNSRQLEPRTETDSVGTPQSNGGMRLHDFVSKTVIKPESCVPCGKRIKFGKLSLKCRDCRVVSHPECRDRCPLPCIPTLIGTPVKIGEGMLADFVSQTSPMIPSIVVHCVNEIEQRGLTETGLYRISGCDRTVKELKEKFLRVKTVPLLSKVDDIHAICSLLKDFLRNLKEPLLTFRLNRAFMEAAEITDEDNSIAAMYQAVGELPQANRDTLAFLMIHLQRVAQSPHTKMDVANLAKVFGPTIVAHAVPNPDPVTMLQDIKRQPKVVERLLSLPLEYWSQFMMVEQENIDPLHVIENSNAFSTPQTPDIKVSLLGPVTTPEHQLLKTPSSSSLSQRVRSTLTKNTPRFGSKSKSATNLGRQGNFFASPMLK

[3] = biological target: T2, Histone-lysine N-methyltransferase NSD2 (Homo sapiens, UniProt O96028); format: biochemical
T2 sequence (O96028 whole entry): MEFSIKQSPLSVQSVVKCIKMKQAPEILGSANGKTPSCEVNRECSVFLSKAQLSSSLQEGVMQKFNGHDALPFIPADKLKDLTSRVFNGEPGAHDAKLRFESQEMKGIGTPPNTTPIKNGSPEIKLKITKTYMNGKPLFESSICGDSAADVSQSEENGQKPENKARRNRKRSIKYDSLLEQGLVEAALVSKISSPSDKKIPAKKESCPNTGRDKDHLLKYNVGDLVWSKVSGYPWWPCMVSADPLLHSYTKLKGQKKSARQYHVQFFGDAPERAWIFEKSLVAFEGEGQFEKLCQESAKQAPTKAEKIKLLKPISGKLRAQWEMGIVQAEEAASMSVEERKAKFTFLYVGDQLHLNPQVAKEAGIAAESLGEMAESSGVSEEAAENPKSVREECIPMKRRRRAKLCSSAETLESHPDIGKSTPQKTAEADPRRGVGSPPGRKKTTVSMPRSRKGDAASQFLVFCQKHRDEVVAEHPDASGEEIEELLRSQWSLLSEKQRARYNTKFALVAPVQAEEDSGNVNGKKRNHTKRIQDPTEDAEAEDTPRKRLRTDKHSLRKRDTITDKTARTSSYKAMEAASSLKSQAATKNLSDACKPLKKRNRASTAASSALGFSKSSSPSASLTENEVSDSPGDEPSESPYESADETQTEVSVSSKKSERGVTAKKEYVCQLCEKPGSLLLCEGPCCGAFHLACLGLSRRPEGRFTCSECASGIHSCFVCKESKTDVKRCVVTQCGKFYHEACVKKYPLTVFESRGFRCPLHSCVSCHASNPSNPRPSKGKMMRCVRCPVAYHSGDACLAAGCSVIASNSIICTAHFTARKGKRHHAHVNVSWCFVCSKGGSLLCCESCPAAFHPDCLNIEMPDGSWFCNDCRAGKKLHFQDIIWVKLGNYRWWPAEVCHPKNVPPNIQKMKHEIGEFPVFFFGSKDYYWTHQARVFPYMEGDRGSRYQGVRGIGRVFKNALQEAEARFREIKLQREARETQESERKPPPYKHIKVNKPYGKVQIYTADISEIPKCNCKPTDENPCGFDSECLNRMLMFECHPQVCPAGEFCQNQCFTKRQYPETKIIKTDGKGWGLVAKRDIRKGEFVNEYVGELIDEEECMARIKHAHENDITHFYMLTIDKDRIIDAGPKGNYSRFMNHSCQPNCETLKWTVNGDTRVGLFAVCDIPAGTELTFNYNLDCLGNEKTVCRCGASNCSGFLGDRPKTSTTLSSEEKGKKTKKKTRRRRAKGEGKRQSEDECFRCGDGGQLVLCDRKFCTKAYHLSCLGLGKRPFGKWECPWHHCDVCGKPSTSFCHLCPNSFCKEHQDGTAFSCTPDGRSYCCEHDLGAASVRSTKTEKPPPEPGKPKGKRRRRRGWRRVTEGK

Leucine aminopeptidase = biological target: T3, Leucine aminopeptidase (Plasmodium falciparum 3D7, UniProt Q8IL11); assay: P. falciparum M17LAP inhibitors, primary screen, biochemical, fluorogenic H-Leu-NHMec substrate, 1536-well (AID 1619); format: functional
T3 sequence (Q8IL11 whole entry): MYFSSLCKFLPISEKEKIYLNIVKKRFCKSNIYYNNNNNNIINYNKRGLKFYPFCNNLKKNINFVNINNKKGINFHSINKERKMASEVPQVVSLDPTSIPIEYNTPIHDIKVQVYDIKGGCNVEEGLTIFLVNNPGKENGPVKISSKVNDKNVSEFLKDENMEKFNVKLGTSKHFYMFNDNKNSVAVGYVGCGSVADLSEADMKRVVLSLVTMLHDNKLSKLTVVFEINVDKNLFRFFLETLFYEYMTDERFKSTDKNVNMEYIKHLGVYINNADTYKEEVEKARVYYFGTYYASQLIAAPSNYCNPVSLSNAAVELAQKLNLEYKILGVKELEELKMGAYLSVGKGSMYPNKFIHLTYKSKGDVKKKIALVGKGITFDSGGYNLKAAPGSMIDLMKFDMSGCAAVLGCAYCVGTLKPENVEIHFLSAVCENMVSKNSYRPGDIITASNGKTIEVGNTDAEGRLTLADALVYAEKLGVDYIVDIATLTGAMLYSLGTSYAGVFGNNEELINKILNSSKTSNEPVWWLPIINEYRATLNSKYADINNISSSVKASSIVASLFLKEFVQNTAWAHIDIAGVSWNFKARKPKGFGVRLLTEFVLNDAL

[4] = biological target: T4, Replicative DNA helicase DnaB (Mycobacterium tuberculosis, UniProt P9WMR3); assay: DnaB intein splicing inhibitors, dose response, biochemical, cell-free fluorescence (AID 449749); format: functional
T4 sequence (P9WMR3 whole entry): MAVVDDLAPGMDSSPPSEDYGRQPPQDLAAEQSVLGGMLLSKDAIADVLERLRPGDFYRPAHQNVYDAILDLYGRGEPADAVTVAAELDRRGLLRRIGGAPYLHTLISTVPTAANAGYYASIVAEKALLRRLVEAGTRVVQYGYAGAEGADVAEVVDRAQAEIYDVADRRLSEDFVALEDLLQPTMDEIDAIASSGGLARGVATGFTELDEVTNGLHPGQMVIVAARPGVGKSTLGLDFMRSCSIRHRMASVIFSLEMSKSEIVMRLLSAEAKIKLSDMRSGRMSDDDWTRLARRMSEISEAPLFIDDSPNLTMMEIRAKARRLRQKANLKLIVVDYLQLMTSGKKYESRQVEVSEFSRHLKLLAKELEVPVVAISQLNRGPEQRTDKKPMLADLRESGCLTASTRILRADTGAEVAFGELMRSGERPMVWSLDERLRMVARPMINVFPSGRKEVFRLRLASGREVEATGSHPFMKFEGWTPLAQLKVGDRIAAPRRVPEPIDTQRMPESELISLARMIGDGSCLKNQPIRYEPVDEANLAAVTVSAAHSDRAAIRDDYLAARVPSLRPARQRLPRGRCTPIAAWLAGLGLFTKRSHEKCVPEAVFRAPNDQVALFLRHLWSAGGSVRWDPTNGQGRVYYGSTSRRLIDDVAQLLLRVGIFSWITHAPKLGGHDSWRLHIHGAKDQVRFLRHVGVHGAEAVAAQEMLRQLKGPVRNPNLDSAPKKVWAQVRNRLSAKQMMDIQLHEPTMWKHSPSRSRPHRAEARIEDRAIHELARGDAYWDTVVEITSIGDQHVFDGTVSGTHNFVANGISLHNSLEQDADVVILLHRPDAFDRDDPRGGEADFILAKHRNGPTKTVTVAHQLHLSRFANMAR

Protein RecA = biological target: T5, Protein RecA (Mycobacterium tuberculosis, UniProt P9WHJ3); assay: Fluorescence Cell-Free Homogeneous Dose Retest to Identify Inhibitors of RecA-Intein Splicing Activity. [Related pubchem assays (depositor defined):AID2097, AID2223, AID489010, AID492950]; format: functional
T5 sequence (P9WHJ3 whole entry): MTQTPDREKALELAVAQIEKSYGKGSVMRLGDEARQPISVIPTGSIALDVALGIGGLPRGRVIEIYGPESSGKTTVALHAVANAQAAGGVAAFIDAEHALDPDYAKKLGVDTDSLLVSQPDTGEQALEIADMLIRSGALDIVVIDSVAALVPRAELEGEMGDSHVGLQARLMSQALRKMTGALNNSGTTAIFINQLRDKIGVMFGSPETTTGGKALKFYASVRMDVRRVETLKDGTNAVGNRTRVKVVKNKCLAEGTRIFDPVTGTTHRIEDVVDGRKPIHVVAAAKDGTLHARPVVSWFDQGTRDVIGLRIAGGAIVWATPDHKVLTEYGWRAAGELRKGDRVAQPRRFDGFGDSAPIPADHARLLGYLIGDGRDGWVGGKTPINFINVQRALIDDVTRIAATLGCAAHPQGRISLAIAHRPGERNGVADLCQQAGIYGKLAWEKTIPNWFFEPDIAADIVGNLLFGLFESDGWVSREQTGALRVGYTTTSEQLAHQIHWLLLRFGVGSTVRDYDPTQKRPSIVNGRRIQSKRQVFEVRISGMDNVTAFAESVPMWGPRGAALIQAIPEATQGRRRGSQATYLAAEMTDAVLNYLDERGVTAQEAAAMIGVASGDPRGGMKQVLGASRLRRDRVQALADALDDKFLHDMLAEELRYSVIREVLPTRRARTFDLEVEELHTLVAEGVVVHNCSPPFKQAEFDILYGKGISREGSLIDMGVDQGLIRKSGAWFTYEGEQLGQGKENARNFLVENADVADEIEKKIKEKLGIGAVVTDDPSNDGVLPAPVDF

[5] = biological target: Glucose-6-phosphate 1-dehydrogenase (Homo sapiens, UniProt P11413); assay: inhibition of Homo sapiens G6PD, dose series – biochemical, fluorescence, selectivity assay for P. falciparum G6PD inhibitor project, dose response (AID 504792); format: functional
HEK293 = assay: EBV LMP1 TES2 canonical NF-kB signalling blockers – cell-based, HEK293, luciferase, cherry-pick, dose response (AID 588343); format: functional; conditions: Homo sapiens
Nonstructural protein 1 = Nonstructural protein 1 (Influenza A virus, UniProt Q194T2); format: functional, Influenza A virus (A/California/07/2009(H1N1))
H9c2 = assay: cells; format: functional, cell-based; conditions: Rattus norvegicus, H9c2, Myocardium;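 further: confirmatory concentration-response retest of ultra-high-throughput screening hits for modulation of myocardial damage; cell death induced by hydrogen peroxide oxidative stress; compound pretreatment for 60 min then peroxide exposure for 2 h; potency is for protecting the cells against peroxide damage rather than for killing them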
[6] = Vero E6 cell cytotoxicity, dose response, cytotoxicity control for non-replicating M. tuberculosis project, secondary assay (AID 492998); format: functional, VeroE6; conditions: Vero C1008
[7] = growth inhibition of yeast DHODH-expressing 3D7 parasites – SYBR Green, dry powder samples, dose response (AID 1159570); format: functional, cell-based;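 further: parasite growth measured after 72 hours of compound exposure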
[8] = P. falciparum Dd2 growth inhibitors, dose response, SYBR Green, cherry-picked samples (AID 1159567); format: functional, cell-based
[9] = Dd2 malaria parasite growth inhibition potency – SYBR Green, dry powder samples, dose response (AID 1159566); format: functional, cell-based;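 further: potency for growth inhibition with lower SYBR green DNA signal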
[10] = growth inhibition of PfATP4-mutant resistant parasites – NITD609-resistant line, SYBR Green, dry powder, dose response (AID 1159571); format: functional, cell-based;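 further: parasites synchronized at ring stage by sorbitol before testing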
[11] = biological target: Peroxisome proliferator-activated receptor gamma/Nuclear receptor coactivator 2 (Homo sapiens, UniProt P37231); format: functional;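 further: agonist potency for raising coactivator recruitment to the receptor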
[12] = biological target: Peroxisome proliferator-activated receptor gamma/Nuclear receptor coactivator 1 (Homo sapiens, UniProt P37231); format: functional;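 further: agonist potency as compounds enhance coactivator SRC-1 recruitment to PPARgamma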
[13] = biological target: Peroxisome proliferator-activated receptor gamma/Nuclear receptor coactivator 3 (Homo sapiens, UniProt P37231); format: functional;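 further: agonist potency for raising coactivator recruitment to the receptor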
Cytochrome P450 3A4 = Cytochrome P450 3A4 (Homo sapiens, UniProt P08684);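 further: CYP3A4 tested as one member of a cytochrome P450 panel screen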
[14] = A549 cell cytotoxicity, dose response, cytotoxicity control, plate reader, cherry-pick, antagonist series (AID 743412); format: functional, cell-based

Chain of Nonstructural protein 1 (Q194T2 whole entry): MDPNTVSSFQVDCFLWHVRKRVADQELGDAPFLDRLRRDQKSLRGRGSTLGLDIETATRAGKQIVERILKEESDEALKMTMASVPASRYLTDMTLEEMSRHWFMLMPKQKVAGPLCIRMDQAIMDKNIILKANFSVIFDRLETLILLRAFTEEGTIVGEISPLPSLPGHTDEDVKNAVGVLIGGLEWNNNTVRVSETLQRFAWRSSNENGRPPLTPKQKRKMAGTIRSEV
Chain of Cytochrome P450 3A4 (P08684 whole entry): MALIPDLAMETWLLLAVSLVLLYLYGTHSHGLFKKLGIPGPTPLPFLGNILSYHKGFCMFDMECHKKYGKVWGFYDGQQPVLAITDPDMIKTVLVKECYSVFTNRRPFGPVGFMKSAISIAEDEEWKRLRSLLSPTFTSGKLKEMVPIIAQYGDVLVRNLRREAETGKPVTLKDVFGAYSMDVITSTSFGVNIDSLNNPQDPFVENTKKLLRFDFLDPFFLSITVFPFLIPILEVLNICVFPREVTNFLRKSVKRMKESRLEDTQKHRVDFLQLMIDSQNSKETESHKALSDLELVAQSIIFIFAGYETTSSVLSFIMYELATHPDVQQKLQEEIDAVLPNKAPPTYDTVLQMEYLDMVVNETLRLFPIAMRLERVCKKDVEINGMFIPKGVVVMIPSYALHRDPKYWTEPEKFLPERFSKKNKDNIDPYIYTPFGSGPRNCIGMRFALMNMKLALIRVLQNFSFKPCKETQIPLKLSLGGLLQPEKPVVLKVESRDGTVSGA
Chain of Peroxisome proliferator-activated receptor gamma/Nuclear receptor coactivator 2 (P37231 whole entry): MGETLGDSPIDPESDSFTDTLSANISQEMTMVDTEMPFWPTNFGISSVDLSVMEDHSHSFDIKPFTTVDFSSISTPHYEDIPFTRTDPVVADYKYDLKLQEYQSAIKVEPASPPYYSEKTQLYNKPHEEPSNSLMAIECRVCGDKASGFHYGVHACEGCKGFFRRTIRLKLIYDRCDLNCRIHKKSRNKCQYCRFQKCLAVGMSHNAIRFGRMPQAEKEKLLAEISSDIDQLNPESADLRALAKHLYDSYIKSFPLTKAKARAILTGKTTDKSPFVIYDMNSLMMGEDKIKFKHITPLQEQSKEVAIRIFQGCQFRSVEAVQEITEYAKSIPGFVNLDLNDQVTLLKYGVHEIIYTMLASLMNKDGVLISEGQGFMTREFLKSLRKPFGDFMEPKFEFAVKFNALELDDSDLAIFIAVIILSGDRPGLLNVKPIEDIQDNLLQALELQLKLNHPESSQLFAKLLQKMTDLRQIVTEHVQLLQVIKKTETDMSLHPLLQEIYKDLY
Chain of Peroxisome proliferator-activated receptor gamma/Nuclear receptor coactivator 2 (Q15596 whole entry, further chain): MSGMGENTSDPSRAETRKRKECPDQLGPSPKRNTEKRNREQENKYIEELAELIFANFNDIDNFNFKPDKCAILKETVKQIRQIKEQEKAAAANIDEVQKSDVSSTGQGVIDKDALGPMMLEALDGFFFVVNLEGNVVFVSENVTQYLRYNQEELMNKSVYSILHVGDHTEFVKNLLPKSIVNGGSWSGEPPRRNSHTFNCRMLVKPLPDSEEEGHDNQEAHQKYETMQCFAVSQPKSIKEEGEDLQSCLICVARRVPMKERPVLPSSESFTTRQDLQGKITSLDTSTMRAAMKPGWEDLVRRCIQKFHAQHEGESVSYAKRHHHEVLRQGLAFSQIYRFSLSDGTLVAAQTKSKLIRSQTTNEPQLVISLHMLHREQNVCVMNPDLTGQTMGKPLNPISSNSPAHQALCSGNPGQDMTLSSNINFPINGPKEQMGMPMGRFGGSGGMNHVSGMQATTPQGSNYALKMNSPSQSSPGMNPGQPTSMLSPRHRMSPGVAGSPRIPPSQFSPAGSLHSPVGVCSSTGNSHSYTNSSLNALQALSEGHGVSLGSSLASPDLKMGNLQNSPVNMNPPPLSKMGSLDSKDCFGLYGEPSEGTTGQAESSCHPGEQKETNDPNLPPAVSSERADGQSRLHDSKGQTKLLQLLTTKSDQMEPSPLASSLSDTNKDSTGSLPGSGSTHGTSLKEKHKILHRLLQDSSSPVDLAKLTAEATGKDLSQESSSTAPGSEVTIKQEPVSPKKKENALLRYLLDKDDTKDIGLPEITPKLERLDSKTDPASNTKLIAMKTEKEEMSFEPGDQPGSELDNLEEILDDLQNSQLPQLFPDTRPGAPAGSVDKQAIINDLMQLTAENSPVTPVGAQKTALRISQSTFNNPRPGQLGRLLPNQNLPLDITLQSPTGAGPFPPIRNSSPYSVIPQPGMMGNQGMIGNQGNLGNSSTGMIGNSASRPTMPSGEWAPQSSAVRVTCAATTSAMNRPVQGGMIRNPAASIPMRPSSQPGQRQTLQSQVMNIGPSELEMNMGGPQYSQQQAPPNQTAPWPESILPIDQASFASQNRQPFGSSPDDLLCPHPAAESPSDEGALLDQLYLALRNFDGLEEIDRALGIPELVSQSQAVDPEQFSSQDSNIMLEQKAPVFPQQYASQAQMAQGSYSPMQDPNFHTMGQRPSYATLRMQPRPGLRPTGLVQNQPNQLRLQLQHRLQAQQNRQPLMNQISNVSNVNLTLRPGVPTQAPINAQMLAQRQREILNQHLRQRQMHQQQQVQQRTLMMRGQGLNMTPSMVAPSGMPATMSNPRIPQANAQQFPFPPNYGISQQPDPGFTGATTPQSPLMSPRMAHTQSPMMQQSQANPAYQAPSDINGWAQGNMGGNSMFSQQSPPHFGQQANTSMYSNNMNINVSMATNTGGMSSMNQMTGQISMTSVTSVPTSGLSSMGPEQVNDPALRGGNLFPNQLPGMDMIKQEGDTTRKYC
Chain of Peroxisome proliferator-activated receptor gamma/Nuclear receptor coactivator 1 (P37231 whole entry): as the sequence (P37231 whole entry) above
Chain of Peroxisome proliferator-activated receptor gamma/Nuclear receptor coactivator 1 (Q15788 whole entry, further chain): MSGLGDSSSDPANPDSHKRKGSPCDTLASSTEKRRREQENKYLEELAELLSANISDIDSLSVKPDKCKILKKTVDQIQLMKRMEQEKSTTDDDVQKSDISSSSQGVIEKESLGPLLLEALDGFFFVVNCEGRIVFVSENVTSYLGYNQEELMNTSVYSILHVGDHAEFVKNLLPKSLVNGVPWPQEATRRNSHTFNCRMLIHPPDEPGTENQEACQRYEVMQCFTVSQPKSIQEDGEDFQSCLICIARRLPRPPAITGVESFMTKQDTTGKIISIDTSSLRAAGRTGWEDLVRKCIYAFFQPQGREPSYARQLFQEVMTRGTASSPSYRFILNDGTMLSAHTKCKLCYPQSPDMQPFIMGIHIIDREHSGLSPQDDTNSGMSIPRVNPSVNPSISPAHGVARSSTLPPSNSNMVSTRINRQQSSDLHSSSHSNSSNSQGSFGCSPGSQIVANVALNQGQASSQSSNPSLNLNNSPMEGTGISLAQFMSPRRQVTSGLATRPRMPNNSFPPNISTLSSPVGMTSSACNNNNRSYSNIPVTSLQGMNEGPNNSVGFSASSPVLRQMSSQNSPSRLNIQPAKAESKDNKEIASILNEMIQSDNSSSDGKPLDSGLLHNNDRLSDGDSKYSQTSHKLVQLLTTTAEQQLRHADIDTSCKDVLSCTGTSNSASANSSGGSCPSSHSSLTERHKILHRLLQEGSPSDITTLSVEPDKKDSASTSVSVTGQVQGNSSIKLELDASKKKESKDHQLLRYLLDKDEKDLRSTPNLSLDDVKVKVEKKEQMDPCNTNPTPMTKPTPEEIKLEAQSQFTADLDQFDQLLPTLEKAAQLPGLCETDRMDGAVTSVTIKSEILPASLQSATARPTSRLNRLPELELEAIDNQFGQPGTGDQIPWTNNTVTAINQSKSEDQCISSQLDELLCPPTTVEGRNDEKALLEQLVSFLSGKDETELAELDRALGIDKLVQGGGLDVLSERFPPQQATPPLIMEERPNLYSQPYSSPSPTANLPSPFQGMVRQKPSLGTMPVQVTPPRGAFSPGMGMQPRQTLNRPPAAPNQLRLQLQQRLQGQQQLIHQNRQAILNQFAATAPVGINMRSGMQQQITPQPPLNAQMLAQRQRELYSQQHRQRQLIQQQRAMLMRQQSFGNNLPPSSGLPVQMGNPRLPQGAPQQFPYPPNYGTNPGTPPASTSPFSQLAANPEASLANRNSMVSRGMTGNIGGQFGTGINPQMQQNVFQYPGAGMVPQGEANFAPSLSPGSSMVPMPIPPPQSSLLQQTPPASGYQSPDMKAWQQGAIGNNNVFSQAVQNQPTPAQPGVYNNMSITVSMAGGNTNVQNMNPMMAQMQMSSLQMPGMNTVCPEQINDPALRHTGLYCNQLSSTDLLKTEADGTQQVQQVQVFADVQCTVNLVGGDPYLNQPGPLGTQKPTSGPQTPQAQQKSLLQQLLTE

Cc1cc(SCC(=O)c2ccc(O)c(O)c2)nc2ccccc12
CC50 [1]: 100 µM (active) | IC50 [2]: 58.2 µM (active) | AC50 [3]: 6.7 µM (active)

Cc1c(Cl)cccc1NC(=O)CSCc1cc(=O)[nH][nH]1
IC50 (Leucine aminopeptidase): 62.3 µM (active) | AC50 [4]: > 380 µM (inactive) | EC50 (Protein RecA): > 380 µM (inconclusive)

Cc1[nH]c2ccccc2c1/C=N/Nc1nncn1N
IC50 [5]: 44.1 µM (inactive) | IC50 [2]: 63.7 µM (active)

COc1ccc(C(c2c(C)n(C)n(-c3ccccc3)c2=O)c2c(C)n(C)n(-c3ccccc3)c2=O)c(OC)c1OC
AC50 (HEK293): 344 µM (active)

COc1c(O)cccc1/C=N/NC(=O)Cn1ccnc1C
IC50 (Nonstructural protein 1): 20.4 µM (active) | IC50 (H9c2): > 79 µM (inactive)

CC(C)(C)c1ccc(C(=O)N2CCCC2)s1
CC50 [6]: > 20 µM (active)

COc1cccc(CN2CC3(CCN(Cc4ccccn4)CC3)c3c([nH]c4cc(OC)ccc34)[C@@H]2CO)c1
AC50 [7]: 1.71 µM (active) | AC50 [8]: 1.96 µM (active) | AC50 [9]: 1.79 µM (active) | AC50 [10]: 2.04 µM (active)

COc1cc(CNCCc2ccc3c(c2)OCO3)cc(OC)c1OC
CC50 [1]: 100 µM (active) | IC50 [2]: 127 µM (active)

CN(C)c1ccc(/N=C/C=C2\N(C)c3ccccc3C2(C)C)cc1
EC50 [11]: > 79.4 µM (not active) | EC50 [12]: > 79.4 µM (not active) | EC50 [13]: > 79.4 µM (not active) | IC50 (Nonstructural protein 1): 13.8 µM (active) | CC50 [1]: 100 µM (active) | IC50 [2]: 12.2 µM (active) | AC50 (Cytochrome P450 3A4): 15.8 µM (inconclusive)

CCOC(=O)c1ccc(N2N=C(C)/C(=C/C=C/c3ccco3)C2=O)cc1
IC50 (Nonstructural protein 1): > 100 µM (active)

Cc1ccc(C(=O)CSc2nnc[nH]2)cc1
IC50 (Leucine aminopeptidase): 50.5 µM (active)

O=C1C(C2=NC(C(=O)O)C3C(=O)N(c4ccc(Cl)cc4)C(=O)C23)=C(O)c2ccccc21 (centres undefined)
IC50 (Leucine aminopeptidase): 71.6 µM (active)

Cn1nnnc1SCC(=O)N1CCN(C(=O)c2ccco2)CC1
AC50 [14]: > 52 µM (inactive)
